According to US11666636B2, “GLP-1R agonists and uses thereof” (priority 2017, dated 2023):

Key:
[1] = system: liver inflammation, aortic atherosclerosis; details: rodent model; reported in literature; cited from earlier work
[2] = system: serum inflammatory cytokines; details: rodent model; reported in literature; cited from earlier work
[3] = 6 days after infection; vs vehicle

Row | Compound | aortic atherosclerosis [1] | liver inflammation [1] | serum inflammatory cytokines during LPS-induced endotoxemia [2] | plasma glucose levels [3] | plasma insulin levels [3]
1 | exendin-4 | reduced | reduced | reduced |  | 
2 | CCCCCCCCCCCCCCCC(=O)N[C@@H](CCC(=O)NCCCC[C@H](NC(=O)[C@H](C)NC(=O)[C@H](C)NC(=O)[C@H](CCC(N)=O)NC(=O)CNC(=O)[C@H](CCC(=O)O)NC(=O)[C@H](CC(C)C)NC(=O)[C@H](Cc1ccc(O)cc1)NC(=O)[C@H](CO)NC(=O)[C@H](CO)NC(=O)[C@@H](NC(=O)[C@H](CC(=O)O)NC(=O)[C@H](CO)NC(=O)[C@@H](NC(=O)[C@H](Cc1ccccc1)NC(=O)[C@@H](NC(=O)CNC(=O)[C@H](CCC(=O)O)NC(=O)[C@H](C)NC(=O)[C@@H](N)Cc1cnc[nH]1)[C@@H](C)O)[C@@H](C)O)C(C)C)C(=O)N[C@@H](CCC(=O)O)C(=O)N[C@@H](Cc1ccccc1)C(=O)N[C@H](C(=O)N[C@@H](C)C(=O)N[C@@H](Cc1c[nH]c2ccccc12)C(=O)N[C@@H](CC(C)C)C(=O)N[C@H](C(=O)N[C@@H](CCCNC(=N)N)C(=O)NCC(=O)N[C@@H](CCCNC(=N)N)C(=O)NCC(=O)O)C(C)C)[C@@H](C)CC)C(=O)O [GLP-1R agonist, liraglutide] |  |  |  | no statistically significant changes | no statistically significant changes
